Consider 68 sequences from the supplement of paper PMC11208160.

This series is described as follows: recombinant UMI read abundance after kanamycin selection (control-corrected) (log10(CPM+1)); higher = more efficient recombination; extreme values may be limits of the assay; sequences stand for … in AGTGCAGAGAAAATCGGCCAGTTTTCTCTGCCTGCAGTCCGCATGCCGTGGGACCCCTTGGGTTCTAACCTGTTGCCTAGATTTATGCAGCGGACTGCCTTTCTCCCAAAGTGATAAACCGG…AGGTTGGTTTCACT; site = the 11-nt donor. The gist of the method: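 In Escherichia coli, a pool of donor and donor-binding-loop pairs, each with a 12-nt UMI, was tested for the IS621 bridge recombinase. Plating was on IPTG (0.07 mM) plus kanamycin, or without selection, in two replicates. Recombinant UMIs were amplified by PCR across the donor–target junction and sequenced, and counts were reported as log10(CPM+1) after averaging and control-derived scaling.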
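Note: IS621 bridge recombinase in Escherichia coli cells against a fixed T5 target plasmid.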

In the case of “CGGACAACATGGACCGGTTTTCCCGGTAATCCGTATTTGCT (site CGGACACCTAG)”, the “recombinant UMI read abundance (log10)” value stood at 0. Take “CGGACAACATGGACCGGTTTTCCCGGTAATCCGTATTTGCT (site CGGACAGCTAG)”: the “recombinant UMI read abundance (log10)” value was determined as 0.34. As for “CGGACAACATGGACCGGTTTTCCCGGTAATCCGTATTTGCT (site CGGACATCTAG)”, the figure is 2.39; as for “CGGACATCATGGACCGGTTTTCCCGGTAATCCGTATTTGCA (site CGGACATCTAG)”, 0. As for “CGGACATCATGGACCGGTTTTCCCGGTAATCCGTATTTGCA (site CGGACATCTCG)”, the “recombinant UMI read abundance (log10)” value came out at 0.

For the sequence “CGGACATCATGGACCGGTTTTCCCGGTAATCCGTATTTGCA (site CGGACATCTGG)”, the “recombinant UMI read abundance (log10)” value stood at 0. Regarding “CGGACATCATGGACCGGTTTTCCCGGTAATCCGTATTTGCA (site CGGACATCTTG)”, the “recombinant UMI read abundance (log10)” value came out at 2.76. The value for “CGGACATCATGGACCGGTTTTCCCGGTAATCCGTATTTGGT (site CGGACATCTAA)” was 0.416; that for “CGGACATCATGGACCGGTTTTCCCGGTAATCCGTATTTGGT (site CGGACATCTAC)” was 2.13. In the case of “CGGACATCATGGACCGGTTTTCCCGGTAATCCGTATTTGGT (site CGGACATCTAG)”, the “recombinant UMI read abundance (log10)” value was 0. The value for “CGGACATCATGGACCGGTTTTCCCGGTAATCCGTATTTGGT (site CGGACATCTAT)” was 1.15; that for “CGGACCTCATGGACCGGTTTTCCCGGTAATCCGTATTTGCT (site CGGACATCTAG)” was 0.00704; that for “CGGACCTCATGGACCGGTTTTCCCGGTAATCCGTATTTGCT (site CGGACCTCTAG)” was 3.12. Regarding “CGGACCTCATGGACCGGTTTTCCCGGTAATCCGTATTTGCT (site CGGACGTCTAG)”, the “recombinant UMI read abundance (log10)” value was found to be 0.00745. With “CGGACCTCATGGACCGGTTTTCCCGGTAATCCGTATTTGCT (site CGGACTTCTAG)”, the “recombinant UMI read abundance (log10)” value came out at 0. Take “CGGACGTCATGGACCGGTTTTCCCGGTAATCCGTATTTGCT (site CGGACATCTAG)”: the “recombinant UMI read abundance (log10)” value is 2.54. As for “CGGACGTCATGGACCGGTTTTCCCGGTAATCCGTATTTGCT (site CGGACCTCTAG)”, the figure is 0; as for “CGGACGTCATGGACCGGTTTTCCCGGTAATCCGTATTTGCT (site CGGACGTCTAG)”, 3.06; as for “CGGACGTCATGGACCGGTTTTCCCGGTAATCCGTATTTGCT (site CGGACTTCTAG)”, 0.597. As for “CGGACTACATGGACCGGTTTTCCCGGTAATCCGTATTTGAC (site AGGACTACTGT)”, the figure is 0. Regarding “CGGACTACATGGACCGGTTTTCCCGGTAATCCGTATTTGAC (site CGGACTACTGT)”, the “recombinant UMI read abundance (log10)” value came out at 2.98. The value for “CGGACTACATGGACCGGTTTTCCCGGTAATCCGTATTTGAC (site GGGACTACTGT)” was 0. The value for “CGGACTACATGGACCGGTTTTCCCGGTAATCCGTATTTGAC (site TGGACTACTGT)” was 1.51; that for “CGGACTCCATGGACCGGTTTTCCCGGTAATCCGTATTTGGT (site CGGAATCCTAA)” was 0.00968; that for “CGGACTCCATGGACCGGTTTTCCCGGTAATCCGTATTTGGT (site CGGACTCCTAC)” was 0.215. The value for “CGGAGAGCATGGACCGGTTTTCCCGGTAATCCGTATTTGAA (site CGGAGAGCTTT)” was 2.27; that for “CGGAGCACATGGACCGGTTTTCCCGGTAATCCGTATTTGCA (site CGGAGCACTTG)” was 2.66. “CGGAGGACATGGACCGGTTTTCCCGGTAATCCGTATTTGCA (site AGGAAGACTTG)”: the “recombinant UMI read abundance (log10)” value came out at 0. Consider “CGGAGGACATGGACCGGTTTTCCCGGTAATCCGTATTTGCA (site CGGAGGACTTG)”, for which the “recombinant UMI read abundance (log10)” value worked out at 2.78. Take “CGGAGGCCATGGACCGGTTTTCCCGGTAATCCGTATTTGTT (site CGGAATCCTAA)”: the “recombinant UMI read abundance (log10)” value stood at 0.00304.

As to “CGGAGGCCATGGACCGGTTTTCCCGGTAATCCGTATTTGTT (site CGGAGGCCTAA)”, the “recombinant UMI read abundance (log10)” value turned out to be 0.

Turning to “CGGATAGCATGGACCGGTTTTCCCGGTAATCCGTATTTGTT (site CGGATAGCTAA)”, the “recombinant UMI read abundance (log10)” value worked out at 2.

Turning to “CGGCATCCATGGACCGGTTTTCCCGGTAATCCGTATTTGTG (site CGGAATCCTAA)”, the “recombinant UMI read abundance (log10)” value was determined as 0. As for “CGGCATCCATGGACCGGTTTTCCCGGTAATCCGTATTTGTG (site CGGCATCCTCA)”, the figure is 0.644. As for “CGGCCGGCATGGACCGGTTTTCCCGGTAATCCGTATTTGGC (site AGGCCGGCTGC)”, the “recombinant UMI read abundance (log10)” value stood at 0.

For the sequence “CGGCCGGCATGGACCGGTTTTCCCGGTAATCCGTATTTGGC (site CGGCCGGCTGC)”, the “recombinant UMI read abundance (log10)” value worked out at 1.21. The value for “CGGCCGGCATGGACCGGTTTTCCCGGTAATCCGTATTTGGC (site GGGCCGGCTGC)” was 0; that for “CGGCCGGCATGGACCGGTTTTCCCGGTAATCCGTATTTGGC (site TGGCCGGCTGC)” was 0; that for “CGGCGCACATGGACCGGTTTTCCCGGTAATCCGTATTTGTA (site CGGCGCACTTA)” was 1.57.

Take “CGGCTACCATGGACCGGTTTTCCCGGTAATCCGTATTTGCT (site CAGCTACCTAG)”: the “recombinant UMI read abundance (log10)” value was determined as 0. For “CGGCTACCATGGACCGGTTTTCCCGGTAATCCGTATTTGCT (site CCGCTACCTAG)”, the “recombinant UMI read abundance (log10)” value was found to be 0. As for “CGGCTACCATGGACCGGTTTTCCCGGTAATCCGTATTTGCT (site CGGCTACCTAG)”, the figure is 0; as for “CGGCTACCATGGACCGGTTTTCCCGGTAATCCGTATTTGCT (site CTGCTACCTAG)”, 0.

“CGGCTGACATGGACCGGTTTTCCCGGTAATCCGTATTTGCC (site CGGCTGACTGG)”: the “recombinant UMI read abundance (log10)” value was 1.22. The value for “CGGCTGACATGGACCGGTTTTCCCGGTAATCCGTATTTGTT (site CGGCTGACTAA)” was 0.0767; that for “CGGGAACCATGGACCGGTTTTCCCGGTAATCCGTATTTGAG (site CGGGAACCTAT)” was 0. As for “CGGGAACCATGGACCGGTTTTCCCGGTAATCCGTATTTGAG (site CGGGAACCTCT)”, the “recombinant UMI read abundance (log10)” value amounted to 0.013. As for “CGGGAACCATGGACCGGTTTTCCCGGTAATCCGTATTTGAG (site CGGGAACCTGT)”, the figure is 0; as for “CGGGAACCATGGACCGGTTTTCCCGGTAATCCGTATTTGAG (site CGGGAACCTTT)”, 0. The value for “CGGGAACCATGGACCGGTTTTCCCGGTAATCCGTATTTGCG (site CGGGAACCTCG)” was 0; that for “CGGGAACCATGGACCGGTTTTCCCGGTAATCCGTATTTGTT (site CGGAATCCTAA)” was 0; that for “CGGGAACCATGGACCGGTTTTCCCGGTAATCCGTATTTGTT (site CGGGAACCTAA)” was 0.47. Consider “CGGGAACCATGGACCGGTTTTCCCGGTAATCCGTATTTGTT (site CGGGAACCTAC)”, for which the “recombinant UMI read abundance (log10)” value is 0. Take “CGGGAACCATGGACCGGTTTTCCCGGTAATCCGTATTTGTT (site CGGGAACCTAG)”: the “recombinant UMI read abundance (log10)” value came to 0.

“CGGGAACCATGGACCGGTTTTCCCGGTAATCCGTATTTGTT (site CGGGAACCTAT)”: the “recombinant UMI read abundance (log10)” value is 0.0108. As for “CGGGAGACATGGACCGGTTTTCCCGGTAATCCGTATTTGCC (site CGGGAGACTGG)”, the figure is 1.58; as for “CGGGAGACATGGACCGGTTTTCCCGGTAATCCGTATTTGCC (site CGGGAGCCTGG)”, 0.

On to “CGGGAGACATGGACCGGTTTTCCCGGTAATCCGTATTTGCC (site CGGGAGGCTGG)”, for which the “recombinant UMI read abundance (log10)” value was determined as 1.69. The value for “CGGGAGACATGGACCGGTTTTCCCGGTAATCCGTATTTGCC (site CGGGAGTCTGG)” was 0.663; that for “CGGGAGTCATGGACCGGTTTTCCCGGTAATCCGTATTTGCG (site CGGGAGTCTAG)” was 1.03; that for “CGGGAGTCATGGACCGGTTTTCCCGGTAATCCGTATTTGCG (site CGGGAGTCTCG)” was 2.8. Turning to “CGGGAGTCATGGACCGGTTTTCCCGGTAATCCGTATTTGCG (site CGGGAGTCTGG)”, the “recombinant UMI read abundance (log10)” value was 0. As for “CGGGAGTCATGGACCGGTTTTCCCGGTAATCCGTATTTGCG (site CGGGAGTCTTG)”, the “recombinant UMI read abundance (log10)” value turned out to be 0.888. Take “CGGGAGTCATGGACCGGTTTTCCCGGTAATCCGTATTTGGC (site CGGGAGTCTGA)”: the “recombinant UMI read abundance (log10)” value stood at 1.59.

As for “CGGGAGTCATGGACCGGTTTTCCCGGTAATCCGTATTTGGC (site CGGGAGTCTGC)”, the “recombinant UMI read abundance (log10)” value worked out at 2.76. The value for “CGGGAGTCATGGACCGGTTTTCCCGGTAATCCGTATTTGGC (site CGGGAGTCTGG)” was 0.911; that for “CGGGAGTCATGGACCGGTTTTCCCGGTAATCCGTATTTGGC (site CGGGAGTCTGT)” was 1.96. The value for “CGGGATCCATGGACCGGTTTTCCCGGTAATCCGTATTTGCT (site CGGAATCCTAA)” was 0.0224.
